pIC50: −log10 of the molar value.

For orientation: pIC50 means −log10 of the IC50, conventionally taken in molar units.

In this test the target is T1, recombinant human GR (Homo sapiens, UniProt P04150).
T1 construct: purchased Panvera/Invitrogen P2812 (kit P2893)
T1 sequence (P04150 1-777): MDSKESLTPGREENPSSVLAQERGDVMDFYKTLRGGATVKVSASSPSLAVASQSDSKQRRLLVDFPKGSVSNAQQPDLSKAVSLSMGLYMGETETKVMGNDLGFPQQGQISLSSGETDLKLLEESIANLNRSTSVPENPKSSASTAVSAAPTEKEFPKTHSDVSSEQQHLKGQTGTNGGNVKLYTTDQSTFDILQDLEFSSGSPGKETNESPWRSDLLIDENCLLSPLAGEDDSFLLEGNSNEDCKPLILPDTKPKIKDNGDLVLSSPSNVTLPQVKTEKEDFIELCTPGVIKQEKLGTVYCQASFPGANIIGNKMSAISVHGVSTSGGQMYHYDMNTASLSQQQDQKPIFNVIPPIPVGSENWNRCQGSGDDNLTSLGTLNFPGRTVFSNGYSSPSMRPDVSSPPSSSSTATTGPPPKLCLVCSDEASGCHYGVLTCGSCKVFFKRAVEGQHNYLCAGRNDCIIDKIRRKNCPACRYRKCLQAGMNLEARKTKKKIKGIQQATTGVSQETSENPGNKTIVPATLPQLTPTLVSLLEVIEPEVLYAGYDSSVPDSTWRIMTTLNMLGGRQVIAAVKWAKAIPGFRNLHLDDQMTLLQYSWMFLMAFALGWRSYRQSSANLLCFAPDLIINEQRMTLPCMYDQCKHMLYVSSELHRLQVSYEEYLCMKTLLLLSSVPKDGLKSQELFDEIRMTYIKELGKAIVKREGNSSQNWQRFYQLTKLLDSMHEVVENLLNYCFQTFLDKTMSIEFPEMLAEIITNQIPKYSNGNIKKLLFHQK
The experiment in a line: Human Glucocorticoid Receptor (GR) Assay, fluorescence polarization competition with GS Red tracer. The note with it: 2 hours at room temperature, 100% control 10 μM Dexamethasone, XLfit model 205, read-out: Inhibition of GR binding, IC50. The procedure:
Human Glucocorticoid Receptor (GR) Assay The assay is based on a commercial kit from Panvera/Invitrogen (Part number P2893). The assay technology is fluorescence polarization. The kit utilises recombinant human GR (Panvera, Part number P2812), a Fluoromone™ labelled tracer (GS Red, Panvera, Part number P2894) and a Stabilizing Peptide 10X (Panvera, Part number P2815). The GR and Stabilizing Peptide reagents are stored at −70° C. while the GS Red is stored at −20° C. Also included in the kit are 1M DTT (Panvera, Part number P2325, stored at −20° C.) and GR Screening buffer 10X (Panvera, Part number P2814, stored at −70° C. initially but once thawed stored at room temperature). Avoid repeated freeze/thaws for all reagents. The GR Screening buffer 10X comprises 100 mM potassium phosphate, 200 mM sodium molybdate, 1 mM EDTA and 20% DMSO. Test compounds (1 μL) and controls (1 μL) in 100% DMSO were added to black polystyrene 384-well plates (Greiner low volume black flat-bottom, part number 784076). 0% control was 100% DMSO and 100% control was 10 μM Dexamethasone. Background solution (8 μL; assay buffer 10X, Stabilizing Peptide, DTT and ice cold MQ water) was added to the background wells. GS Red solution (7 μL; assay buffer 10X, Stabilizing Peptide, DTT, GS Red and ice cold water) was added to all wells except background wells. GR solution (7 μL; assay buffer 10X, Stabilizing Peptide, DTT, GR and ice cold water) was added to all wells. The plate was sealed and incubated in a dark at room temperature for 2 hours. The plate was read in an Analyst plate reader (LJL Biosystems/Molecular Devices Corporation) or other similar plate reader capable of recording fluorescence polarization (excitation wavelength 530 nm, emission wavelength 590 nm and a dichroic mirror at 561 nm).
For orientation: Polarisation of emitted light reports the rotation of a fluorescent probe.

Consider `COCC(=O)O[C@]1(C(=O)SCF)[C@H](C)C[C@H]2[C@@H]3CCC4=Cc5c(cnn5-c5cccc(C(=O)N[C@@H](C)C(N)=O)c5)C[C@]4(C)[C@@]3(F)[C@@H](O)C[C@@]21C` [Example 22, (1R,2R,3aS,3bS,10aS,10bR,11S,12aS)-7-(3-{[(1S)-2-Amino-1-methyl-2-oxoethyl]carbamoyl}phenyl)-10b-fluoro-1-{[(fluoromethyl)sulfanyl]carbonyl}-11-hydroxy-2,10a,12a-trimethyl-1,2,3,3a,3b,4,5,7,10,10a,10b,11,12,12a-tetradecahydrocyclopenta[5,6]naphtho[1,2-f]indazol-1-yl methoxyacetate], for which the pIC50 is 8.72.
`COCC(=O)O[C@]1(C(=O)SCF)[C@H](C)C[C@H]2[C@@H]3CCC4=Cc5c(cnn5-c5cccc(C(=O)N6CCC[C@@H]6C(N)=O)c5)C[C@]4(C)[C@@]3(F)[C@@H](O)C[C@@]21C` [Example 47, (1R,2R,3aS,3bS, 10aS,10bR,11S,12aS)-7-(3-{[(2R)-2-carbamoyl-pyrrolidin-1-yl]carbonyl}phenyl)-10b-fluoro-1-{[(fluoromethyl)sulfanyl]carbonyl}-11-hydroxy-2,10a,12a-trimethyl-1,2,3,3a,3b,4,5,7,10, 10a,10b,11,12,12a-tetradecahydrocyclo-penta[5,6]naphtho [1,2-f]indazol-1-yl methoxyacetate]: the pIC50 was 8.12.
The figure for `C[C@]12Cc3cnn(-c4cccc(C(=O)NCc5cccnc5)c4)c3C=C1CC[C@@H]1[C@@H]2[C@@H](O)C[C@@]2(C)[C@H]1CC[C@]2(OC(=O)c1cocn1)C(=O)SCF` [Example 39, (1R,3aS,3bS,10aR, 10bS,11S,12aS)-1-{[(fluoromethyl)sulfanyl]carbonyl}-11-hydroxy-10a,12a-dimethyl-7-{3-[(pyridin-3-ylmethyl)carbamoyl]-phenyl}-1,2,3,3a,3b, 4,5,7,10,10a,- 10b,11,12,12a-tetradecahydro-cyclopenta[5,6]naphtho [1,2-f]indazol-1-yl 1,3-oxazole-4-carboxylate] is 8.62.
The figure for `CCC(=O)O[C@]1(C(=O)SCF)CC[C@H]2[C@@H]3CCC4=Cc5c(cnn5-c5cccc(C(=O)N(C)CC(N)=O)c5)C[C@]4(C)[C@@]3(F)[C@@H](O)C[C@@]21C` [Example 34, (1R,3aS,3bS,10aS, 10bR,11S,12aS)-7-{3-[(2-amino-2-oxoethyl)(methyl)carbamoyl]phenyl}-10b-fluoro-1-{[(fluoromethyl)sulfanyl]carbonyl}-11-hydroxy-10a,12a-dimethyl-1,2,3,3a,3b,4,5,7,10, 10a,10b,11,12,12a-tetradecahydrocyclo-penta[5,6]naphtho [1,2-f]indazol-1-yl propanoate] is 8.42.
The figure for `C[C@]12Cc3cnn(-c4cccc(C(=O)N5CCC[C@@H]5C(N)=O)c4)c3C=C1CC[C@@H]1[C@@H]2[C@@H](O)C[C@@]2(C)[C@H]1CC[C@]2(OC(=O)c1cocn1)C(=O)SCC#N` [Example 49, (1R,3aS,3bS,10aR, 10bS,11S,12aS)-7-(3-{[(2R)-2-carbamoyl-pyrrolidin-1-yl]carbonyl}phenyl)-1-{[(cyanomethyl)sulfanyl]carbonyl}-11-hydroxy-10a,12a-dimethyl-1,2,3,3a,3b,4,5,7,10, 10a,10b,11,12,12a-tetradecahydrocyclo-penta[5,6]naphtho [1,2-f]indazol-1-yl 1,3-oxazole-4-carboxylate] is 7.92.
Regarding `COCC(=O)O[C@]1(C(=O)SC)CC[C@H]2[C@@H]3CCC4=Cc5c(cnn5-c5cccc(C(=O)N6CCC[C@@H]6C(N)=O)c5)C[C@]4(C)[C@@]3(F)[C@@H](O)C[C@@]21C` [Example 56, (1R,3aS,3bS,10aS,10bR,11S,12aS)-7-(3-{[(2R)-2-carbamoylpyrrolidin-1-yl]carbonyl}phenyl)-10b-fluoro-11-hydroxy-10a,12a-dimethyl-1-[(methylsulfanyl)carbonyl]-1,2,3,3a,3b,4,5,7,10,10a,10b,11,12,12a-tetradecahydrocyclopenta[5,6]naphtho[1,2-f]indazol-1-yl methoxyacetate], the pIC50 is 8.07.
Take `CCC(=O)O[C@]1(C(=O)SCC#N)CC[C@H]2[C@@H]3CCC4=Cc5c(cnn5-c5cccc(C(=O)NCC(N)=O)c5)C[C@]4(C)[C@H]3[C@@H](O)C[C@@]21C` [Example 11, (1R,3aS,3bS,10aR,10bS,11S,12aS)-7-{3-[(2-Amino-2-oxoethyl)carbamoyl]phenyl}-1-{[(cyanomethyl)sulfanyl]carbonyl}-11-hydroxy-10a,12a-dimethyl-1,2,3,3a,3b,4,5,7,10,10a,10b,11,12,12a-tetradecahydrocyclopenta[5,6]naphtho[1,2-f]indazol-1-yl propanoate]: the pIC50 was 8.43.
With `CCC(=O)O[C@]1(C(=O)SC)CC[C@H]2[C@@H]3CCC4=Cc5c(cnn5-c5cccc(C(=O)N6CCC[C@@H]6C(N)=O)c5)C[C@]4(C)[C@@]3(F)[C@@H](O)C[C@@]21C` [Example 59, (1R,3aS,3bS,10aS, 10bR,11S,12aS)-7-(3-{[(2R)-2-carbamoyl-pyrrolidin-1-yl]carbonyl}phenyl)-10b-fluoro-11-hydroxy-10a,12a-dimethyl-1-[(methylsulfanyl)carbonyl]-1,2,3,3a,3b,4,5,7,10, 10a,10b,11,12,12a-tetradecahydrocyclo-penta[5,6]naphtho [1,2-f]indazol-1-yl propanoate] the figure was 8.48; with `CCC(=O)O[C@]1(C(=O)SCC#N)CC[C@H]2[C@@H]3CCC4=Cc5c(cnn5-c5cccc(C(=O)N6CCC[C@@H]6C(N)=O)c5)C[C@]4(C)[C@@]3(F)[C@@H](O)C[C@@]21C` [Example 60, (1R,3aS,3bS,10aS, 10bR,11S,12aS)-7-(3-{[(2R)-2-carbamoyl-pyrrolidin-1-yl]carbonyl}phenyl)-1-{[(cyanomethyl)sulfanyl]carbonyl}-10b-fluoro-11-hydroxy-10a,12a-dimethyl-1,2,3,3a, 3b,4,5,7,10,- 10a,10b,11,12,12a-tetradecahydro-cyclopenta[5,6]naphtho [1,2-f]indazol-1-yl propanoate], 8.48.
As to `CCC(=O)O[C@]1(C(=O)SCF)CC[C@H]2[C@@H]3CCC4=Cc5c(cnn5-c5cccc(C(=O)NCCSC)c5)C[C@]4(C)[C@H]3[C@@H](O)C[C@@]21C` [Example 7, (1R,3aS,3bS,10aR,10bS,11S,12aS)-1-{[(Fluoromethyl)sulfanyl]carbonyl}-11-hydroxy-10a,12a-dimethyl-7-(3-{[2-(methylsulfanyl)ethyl]carbamoyl}phenyl)-1,2,3,3a,3b,4,5,7,10,10a,10b,11,12,12a-tetradecahydrocyclopenta[5,6]naphtho[1,2-f]indazol-1-yl propanoate], the pIC50 is 8.85.
The figure for `CCC(=O)O[C@]1(C(=O)SCF)CC[C@H]2[C@@H]3CCC4=Cc5c(cnn5-c5cccc(C(=O)N[C@H](C)C(N)=O)c5)C[C@]4(C)[C@@]3(F)[C@@H](O)C[C@@]21C` [Example 32, (1R,3aS,3bS,10aS, 10bR,11S,12aS)-7-(3-{[(1R)-2-amino-1-methyl-2-oxoethyl]carbamoyl}phenyl)-10b-fluoro-1-{[(fluoromethyl)-sulfanyl]carbonyl}-11-hydroxy-10a,12a-dimethyl-1,2,3,3a,3b,4,5,7,10, 10a,10b,11,12,12a-tetradecahydrocyclo-penta[5,6]naphtho [1,2-f]indazol-1-yl propanoate] is 8.60.
